According to patent publication US11235023B2, “Beta-hairpin peptidomimetic with elastase inhibitory activity and aerosol dosage forms thereof” (POLYPHOR AG, priority 2016, dated 2022):
Read-outs that look alike come from different tables or passages of the source. Non-standard residues stand in square brackets, D forms with d. Residues, ends and D or L forms follow the SMILES beside them. Gly(octyl) = CCCCCCCC[C@H](N)C(=O)O

How the values were obtained:
[1] = GLP-compliant 28-day inhalation toxicity study in rats; format: in vivo, rat
Description: In a GLP-compliant 28-day inhalation toxicity study in rats, conducted by Charles River Laboratories Preclinical Services, Tranent, Edinburgh, UK, the formulation described in Example 2 and dilutions thereof as well as the vehicle were administered using the Pari eFlow® XL 30 nebulizer device (Pari Pharma, Starnberg, Germany) for 100 min per day for 28 days, followed by a 2-week recovery period. […] Ten animals were used for the main toxicity study, and 5 additional animals for the recovery phase. Parameters assessed included clinical signs, body weights, food consumption, ophthalmic examination, clinical pathology, gross necropsy findings, organ weights and histopathologic examinations. […] This was associated with reduction in food consumption in treated animals. There was a good recovery in body weight gain during the recovery period between day 28 and 42.

[2] = First-in-man study in healthy subjects, safety and tolerability of orally inhaled single doses; format: in vivo, human
From the text: In this randomised, double-blind, placebo-controlled, parallel-group (per dose level) dose-escalation study of inhaled single doses in 48 healthy subjects in six dose groups of eight subjects each, conducted by Inamed GmbH, Gauting, Germany, the controlled oral inhalation of the formulation described in Example 1 and dilutions thereof as well as the placebo (0.5% [w/w] aqueous sodium chloride solution adjusted to pH 5.5 with 1 M HCl pharmaceutical grade) occurred via the Pari eFlow® XL 30 nebulizer device (Pari Pharma GmbH, Starnberg, Germany). The dose levels and corresponding concentrations of cyclo(-OctG-Glu-Thr-Ala-Ser-Ile-Pro-Pro-Gln-Lys-Tyr-^DPro-Pro-) (active compound) are summarized in Table 10.
(§1) The volume of placebo nebulizer solution corresponded to that of the active compound at a particular dose level. The duration of inhalation depended on the total volume of nebulizer solution and ranged between several minutes and roughly one hour. Adverse events were tabulated and summarized according to the current version of Medical Dictionary for Regulatory Activities.

neutrophil elastase = test: LPS/fMLP model of neutrophil activation in the rat, neutrophil elastase activity in BAL supernatant; format: in vivo; conditions: for NE activity: BAL 6 h post LPS, mean ± s.e.m., vehicle 0.25 ± 0.02
[3] = Phase-Ib single ascending dose study in patients with cystic fibrosis, safety and tolerability; format: in vivo, human
From the text: In this randomised, double-blind, placebo-controlled, parallel-group (per dose level) dose-escalation study, the safety and tolerability of single ascending doses (SAD) of acetate salt of cyclo(-OctG-Glu-Thr-Ala-Ser-Ile-Pro-Pro-Gln-Lys-Tyr-^DPro-Pro-) administered by inhalation in patients with cystic fibrosis (CF) was investigated. Additionally, the pharmacokinetics of the drug following a single ascending dose in plasma and sputum as well as its pharmacodynamic effect on neutrophil elastase activity in sputum were evaluated.
In this study, conducted by Inamed GmbH, Gauting, Germany, 24 subjects with cystic fibrosis, who fulfilled all the inclusion criteria and in whom no exclusion criterion was present, were included and received randomised treatment. They were grouped into 3 dose groups of 8 subjects each. 6 subjects received the formulation described in Example 1 and dilutions thereof and 2 subjects received placebo (0.5% [w/w] aqueous sodium chloride solution adjusted to pH 5.5 with 1 M HCl pharmaceutical grade). The oral inhalation of the above formulation as well as the placebo occurred via the Pari eFlow® XL 30 nebulizer device (Pari Pharma GmbH, Starnberg, Germany). The dose levels and corresponding concentrations of cyclo(-OctG-Glu-Thr-Ala-Ser-Ile-Pro-Pro-Gln-Lys-Tyr-^DPro-Pro-) (active compound) are summarized in Table 14.
as §1, with “was estimated to be between 7” for “depended on the total volume of nebulizer solution”, “20 min.” for “ranged between several minutes and roughly one hour.”

[4] = Phase-Ib study in CF patients, plasma pharmacokinetics (LC-MS/MS); format: in vivo; conditions: human, inhaled or intranasal; for Tmax: inhalation, CF patients; for level at 24 h: read-out: mean plasma concentration 24 hours after inhalation; for half-life: read-out: mean terminal half-life (plasma) (converted)
Description: AUC0-∞, AUC0-∞/D, Cmax, Cmax/D of active compound in plasma as primary variables and tmax, t1/2, λ2, […] of active compound in plasma as secondary variables.
Blood samples for the determination of the plasma concentrations of active compound were taken at the following points in time:
On Day 1 at pre-dose, 10 min, and 0.5 h, 1 h, 2 h, 3 h, 4 h, 6 h, 8 h, 12 h, 15 h, and on Day 2 at 24 h post dose (after start of inhalation).
The samples were collected in closed K3-EDTA plasma sampling tubes (Monovette® Sarstedt, Germany). The accepted time-interval for sample handling procedures for each individual study sample, i.e., the time between sample collection and sample centrifugation had not to exceed 60 min, and the time between the end of centrifugation and sample freezing had also not to exceed 60 min.
The samples were centrifuged at approximately 4° C. (±2° C.) at 2200×g for 15 min.
The resulting plasma supernatant was then transferred into 2 polypropylene tubes (1st aliquot of at least 1 mL and backup) and frozen in upright position below […]
For the analysis of active compound in plasma, a validated and highly sensitive liquid chromatography tandem mass spectrometry (LC-MS/MS) method was used.
The pharmacokinetic parameters mentioned above were calculated based on actual blood and sputum sampling times using non-compartmental procedures.

CCCCCCCC[C@@H]1NC(=O)[C@@H]2CCCN2C(=O)[C@H]2CCCN2C(=O)[C@H](Cc2ccc(O)cc2)NC(=O)[C@H](CCCCN)NC(=O)[C@H](CCC(N)=O)NC(=O)[C@@H]2CCCN2C(=O)[C@@H]2CCCN2C(=O)[C@H]([C@@H](C)CC)NC(=O)[C@H](CO)NC(=O)[C@H](C)NC(=O)[C@H]([C@@H](C)O)NC(=O)[C@H](CCC(=O)O)NC1=O [active compound, cyclo(-OctG-Glu-Thr-Ala-Ser-Ile-Pro-Pro-Gln-Lys-Tyr-^DPro-Pro-)] (cyclo([Gly(octyl)]ETASIPPQKY[dP]P))
NOAEL at 28 days ([1]; in vivo, inhaled or intranasal, rat, inhalation 100 min per day for 28 days, read-out: No Observed Adverse Effect Level (NOAEL)): 119 mg/kg/day
Body weight gain ([1]; male rats at 119 mg/kg/day vs vehicle control): Slightly reduced
Clinical signs and ophthalmic findings ([1]; rat, 11, 53 and 119 mg/kg/day): no clinical signs or ophthalmic findings
Clinical pathology (haematology, coagulation, clinical chemistry, urinalysis) ([1]; rat, in vivo): no findings in clinical pathology
Histopathology of the larynx ([1]; rat, in vivo): focal minimal squamous metaplasia without cellular atypia of dysplasia
Histopathology of the lungs ([1]; rat, in vivo): minimal to moderate multifocal alveolar macrophage accumulation
Deaths, serious and other significant adverse events ([2]; healthy subjects, single inhaled doses 20-960 mg): No death, no serious adverse events (AE) and no other significant AE
Inhalation-related adverse events ('cough'), local tolerability ([2]; human, in vivo): three
Number of subjects with AEs ([2]; human, in vivo): 13
Number of treatment-emergent adverse events (TEAEs) ([2]; human, in vivo): 24
Proportion of subjects with AEs ([2]; human, in vivo): 27.1%
Subjects judging overall tolerability as 'very good' or 'good' ([2]; human, in vivo): 97.9%
Effect on neutrophil elastase activity in BAL fluid (neutrophil elastase; 0.3, 3 and 30 mg/kg by inhalation 3 h post LPS, 1 h prior to fMLP): significantly inhibited
Test item related clinical signs (neutrophil elastase; between dosing period and study termination): No test item related clinical signs were observed
NE activity (neutrophil elastase; inhalation 0.3 mg/kg): 0.10 ± 0.01 mU/mL eq.
NE activity (neutrophil elastase; inhalation 3 mg/kg): 0.11 ± 0.01 mU/mL eq.
NE activity (neutrophil elastase; inhalation 30 mg/kg): 0.07 ± 0.01 mU/mL eq.
Efficacy in previous intratracheal study (neutrophil elastase; intratracheal doses of 0.03 to 3 mg/kg): efficacious
Deaths, serious and other significant adverse events ([3]; CF patients, single inhaled doses 80, 160, 320 mg): No death, no serious adverse events (AE) and no other significant AE
Causal relationship of TEAEs ([3]; human, in vivo): not related to the active compound
Inhalation-related local AEs ([3]; human, in vivo): no inhalation-related local AEs
Total number of AEs (all TEAEs) ([3]; human, in vivo): 6
Tmax ([4]; dose group 1 (80 mg)): 1.3 h
level at 24 h ([4]; dose group 1 (80 mg)): 2.8 ng/mL
half-life ([4]; dose group 1 (80 mg)): 4.1 h
Tmax ([4]; dose group 2 (160 mg)): 1.5 h
level at 24 h ([4]; dose group 2 (160 mg)): 4.4 ng/mL
half-life ([4]; dose group 2 (160 mg)): 3.5 h
Tmax ([4]; dose group 3 (320 mg)): 2.3 h
level at 24 h ([4]; dose group 3 (320 mg)): 15.2 ng/mL
half-life ([4]; dose group 3 (320 mg)): 3.8 h
